Assay results from US5571807A, “1,5 benzothiazepinone dervatives their preparation and pharmaceutical use” (Istituto Luso Farmaco d'Italia S.p.A., priority 1990, dated 1996).
Counter-ions that a name gives are not always drawn.

What was measured:
[1] = biological target: 3H-diltiazem binding sites in the cardiac tissue (Homo sapiens, UniProt Q13936); assay: biochemical; settings: displacement of 3H-diltiazem, read-out: receptorial binding (pIC50) (converted)
rabbit isolated atrium = rabbit isolated atrium (Oryctolagus cuniculus, UniProt P15381); assay: cell-based; settings: inhibition of tonic contraction; read-out: rabbit isolated atrium (pA2) (converted)
Chain of rabbit isolated atrium (P15381 whole entry, other chains not shown): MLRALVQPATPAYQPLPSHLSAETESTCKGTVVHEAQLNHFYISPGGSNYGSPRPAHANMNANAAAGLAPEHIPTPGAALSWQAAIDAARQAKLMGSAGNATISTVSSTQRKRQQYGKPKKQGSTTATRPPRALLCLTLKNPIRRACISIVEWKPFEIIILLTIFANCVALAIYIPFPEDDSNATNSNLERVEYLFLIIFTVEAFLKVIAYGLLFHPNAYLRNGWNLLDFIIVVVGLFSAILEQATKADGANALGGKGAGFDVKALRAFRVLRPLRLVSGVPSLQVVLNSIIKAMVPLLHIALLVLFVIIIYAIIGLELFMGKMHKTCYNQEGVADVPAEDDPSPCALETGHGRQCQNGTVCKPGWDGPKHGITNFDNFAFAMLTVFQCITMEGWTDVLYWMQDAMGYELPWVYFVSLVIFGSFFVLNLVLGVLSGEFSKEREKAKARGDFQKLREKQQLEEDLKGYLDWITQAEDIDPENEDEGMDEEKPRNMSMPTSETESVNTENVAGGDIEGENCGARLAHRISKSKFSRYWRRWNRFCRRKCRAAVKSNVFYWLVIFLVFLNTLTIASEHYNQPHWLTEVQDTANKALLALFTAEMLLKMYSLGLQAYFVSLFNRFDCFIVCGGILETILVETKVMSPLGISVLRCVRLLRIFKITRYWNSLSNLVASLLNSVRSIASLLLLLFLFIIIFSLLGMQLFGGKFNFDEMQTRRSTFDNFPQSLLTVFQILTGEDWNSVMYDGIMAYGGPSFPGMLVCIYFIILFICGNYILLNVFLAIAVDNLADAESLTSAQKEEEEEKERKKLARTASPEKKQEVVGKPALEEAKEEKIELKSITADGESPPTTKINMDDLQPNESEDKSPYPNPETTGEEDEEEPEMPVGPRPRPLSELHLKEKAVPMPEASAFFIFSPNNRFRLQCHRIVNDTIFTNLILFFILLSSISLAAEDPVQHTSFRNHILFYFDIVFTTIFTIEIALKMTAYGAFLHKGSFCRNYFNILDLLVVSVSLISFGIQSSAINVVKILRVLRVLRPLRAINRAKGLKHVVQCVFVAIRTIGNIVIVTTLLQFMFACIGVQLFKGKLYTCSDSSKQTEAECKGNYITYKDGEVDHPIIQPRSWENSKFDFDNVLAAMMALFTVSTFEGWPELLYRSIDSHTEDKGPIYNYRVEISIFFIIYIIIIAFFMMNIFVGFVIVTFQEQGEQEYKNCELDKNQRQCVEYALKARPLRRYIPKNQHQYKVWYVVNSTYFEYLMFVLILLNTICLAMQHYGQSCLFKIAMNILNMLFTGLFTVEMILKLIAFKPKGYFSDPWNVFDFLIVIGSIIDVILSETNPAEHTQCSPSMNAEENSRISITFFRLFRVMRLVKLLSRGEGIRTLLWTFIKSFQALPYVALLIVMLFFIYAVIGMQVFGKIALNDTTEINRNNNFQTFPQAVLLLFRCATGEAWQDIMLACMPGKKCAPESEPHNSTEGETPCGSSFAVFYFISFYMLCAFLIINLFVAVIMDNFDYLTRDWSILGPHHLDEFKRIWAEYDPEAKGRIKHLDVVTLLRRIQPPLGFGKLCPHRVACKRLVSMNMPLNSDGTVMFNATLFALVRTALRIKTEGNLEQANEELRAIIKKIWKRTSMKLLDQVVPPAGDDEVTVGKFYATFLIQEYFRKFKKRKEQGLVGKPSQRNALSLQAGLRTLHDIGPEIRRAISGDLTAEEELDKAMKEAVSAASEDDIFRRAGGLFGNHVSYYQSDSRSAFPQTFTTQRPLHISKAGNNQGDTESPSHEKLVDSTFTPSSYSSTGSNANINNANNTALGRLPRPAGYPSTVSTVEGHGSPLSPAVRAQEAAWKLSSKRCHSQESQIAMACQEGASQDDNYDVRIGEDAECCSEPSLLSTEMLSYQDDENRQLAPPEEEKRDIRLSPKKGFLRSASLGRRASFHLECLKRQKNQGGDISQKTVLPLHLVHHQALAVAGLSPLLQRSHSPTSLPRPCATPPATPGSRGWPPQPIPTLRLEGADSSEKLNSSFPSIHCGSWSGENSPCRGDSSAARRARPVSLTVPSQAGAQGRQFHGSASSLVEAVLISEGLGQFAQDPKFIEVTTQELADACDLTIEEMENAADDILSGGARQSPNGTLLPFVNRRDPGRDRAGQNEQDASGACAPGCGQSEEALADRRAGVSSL
Chain of rabbit isolated atrium (P13806 27-960 partner limits assumed, other chains not shown): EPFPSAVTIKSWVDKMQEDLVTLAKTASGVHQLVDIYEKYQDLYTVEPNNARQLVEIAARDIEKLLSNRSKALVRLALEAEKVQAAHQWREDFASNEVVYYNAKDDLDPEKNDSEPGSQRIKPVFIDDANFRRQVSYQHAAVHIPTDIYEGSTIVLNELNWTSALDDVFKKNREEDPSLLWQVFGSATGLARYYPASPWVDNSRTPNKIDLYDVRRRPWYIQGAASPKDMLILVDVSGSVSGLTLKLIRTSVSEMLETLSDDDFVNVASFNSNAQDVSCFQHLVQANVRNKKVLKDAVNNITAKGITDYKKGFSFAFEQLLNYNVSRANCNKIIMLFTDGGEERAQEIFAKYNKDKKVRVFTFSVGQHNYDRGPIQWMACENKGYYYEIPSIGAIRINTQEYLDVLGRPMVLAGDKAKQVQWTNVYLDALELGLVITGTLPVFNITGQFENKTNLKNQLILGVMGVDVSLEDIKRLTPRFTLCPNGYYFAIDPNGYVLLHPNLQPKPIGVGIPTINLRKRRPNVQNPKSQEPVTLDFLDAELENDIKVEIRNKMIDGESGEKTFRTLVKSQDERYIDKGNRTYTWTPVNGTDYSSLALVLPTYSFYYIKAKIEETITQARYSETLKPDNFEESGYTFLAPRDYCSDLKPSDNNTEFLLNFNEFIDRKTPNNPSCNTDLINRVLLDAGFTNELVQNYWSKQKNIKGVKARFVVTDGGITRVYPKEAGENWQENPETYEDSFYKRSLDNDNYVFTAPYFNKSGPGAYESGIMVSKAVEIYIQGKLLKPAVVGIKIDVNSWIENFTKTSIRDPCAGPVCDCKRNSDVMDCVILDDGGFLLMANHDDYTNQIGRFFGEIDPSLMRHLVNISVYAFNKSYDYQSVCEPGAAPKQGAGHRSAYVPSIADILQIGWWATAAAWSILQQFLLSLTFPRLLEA
Chain of rabbit isolated atrium (P13806 961-1106 partner limits assumed, other chains not shown): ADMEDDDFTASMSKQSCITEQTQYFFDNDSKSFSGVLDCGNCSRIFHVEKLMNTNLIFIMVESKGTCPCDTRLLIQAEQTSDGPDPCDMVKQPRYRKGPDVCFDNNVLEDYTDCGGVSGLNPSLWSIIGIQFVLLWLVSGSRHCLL

[2] = tested on: vasopressine-induced angina in the rat; assay: Vasopressine-induced angina in the rat; assay type: in vivo; settings: for ED50: iv, read-out: angina vasopressine test rat (iv) ED50
[3] = Pharmacokinetic studies in the conscious incannulated rat; settings: in vivo, po, 50 mg/kg/os, read-out: pharmacokinetics in the rat t 1/2
[4] = humans; cited from earlier work

Row | SMILES | IC50 [1] [µM] | Kb (rabbit isolated atrium) [µM] | angina vasopressine test rat (iv) duration [2] [min] | ED50 [2] [mg/kg] | half-life [3] [h] | elimination half-life [4]
1 | COc1ccc([C@@H]2Sc3ccccc3N(CC(C)CN(C)C)C(=O)[C@@H]2OC(C)=O)cc1.O=C(O)C(=O)O (single isomer, unassigned; diastereoisomer b) [Compound B, Cis(+)-3-acetyloxy-2,3-dihydro-5-(2-methyl-3-dimethylaminopropyl)-2-(4-methoxyphenyl)-1,5-benzothiazepin-4(5H)-one oxalate (diastereoisomer B)] | 0.0302 | 0.0631 | 72 | 0.54 | 1.18 | –
2 | COc1ccc([C@@H]2Sc3ccccc3N(CCN(C)C)C(=O)[C@@H]2OC(C)=O)cc1 [Diltiazem, reference compound] | – | – | – | 0.45 | 0.95 | short elimination half-life
3 | COc1ccc([C@@H]2Sc3ccccc3N(CCN(C)C(C)C)C(=O)[C@@H]2OC(C)=O)cc1 [Compound A, Cis(+)-3-acetyloxy-2,3-dihydro-5-(2-N-isopropyl-N-methylaminoethyl)-2-(4-methoxyphenyl)-1,5-benzothiazepin-4(5H)-one hydrobromide] | 0.0646 | 0.0501 | 78 | 0.49 | 1.53 | –
